Experimental data from publication doi:10.1101/2023.07.10.548257 (bioRxiv, 2024).

Each compound was assayed against T1, full-length SHP2^R138Q (Homo sapiens, UniProt Q06124, R138Q) (assay: SHP2 activation assay using phosphopeptides (DiFMUP), SHP2 R138Q). Conditions: activation of full-length SHP2 R138Q (0.05 nM) by phosphopeptide; DiFMUP substrate; HEPES pH 7.2 assay buffer; mean of N (column N).
T1 construct: Full-length SHP2 constructs were diluted in assay buffer; His6-TEV (N, cleaved yes); made in house; host or cells: E. coli BL21(DE3)
T1 sequence (Q06124 1-593 R138Q): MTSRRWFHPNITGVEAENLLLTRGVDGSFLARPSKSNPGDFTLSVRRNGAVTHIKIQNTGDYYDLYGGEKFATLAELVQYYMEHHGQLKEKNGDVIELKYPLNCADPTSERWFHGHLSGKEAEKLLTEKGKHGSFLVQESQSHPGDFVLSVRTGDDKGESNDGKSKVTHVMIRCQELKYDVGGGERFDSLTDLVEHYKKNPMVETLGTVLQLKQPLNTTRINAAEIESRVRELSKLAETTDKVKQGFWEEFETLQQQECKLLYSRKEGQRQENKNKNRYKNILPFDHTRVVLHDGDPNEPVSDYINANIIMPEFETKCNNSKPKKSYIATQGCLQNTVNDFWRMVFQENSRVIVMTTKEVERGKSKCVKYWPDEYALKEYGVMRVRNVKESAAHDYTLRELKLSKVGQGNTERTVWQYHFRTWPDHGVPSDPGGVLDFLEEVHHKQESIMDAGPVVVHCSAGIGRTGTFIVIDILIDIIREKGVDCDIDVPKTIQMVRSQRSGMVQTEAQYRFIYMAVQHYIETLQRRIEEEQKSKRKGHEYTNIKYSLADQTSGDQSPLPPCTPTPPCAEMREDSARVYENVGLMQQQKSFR
Format: biochemical
Description: Emitted fluorescence at 455nm was recorded every 25 seconds in a span of 50 minutes using a BioTek Synergy Neo2 multi-mode reader. […]
In all cases, the linear region of the reaction progress curve was determined by visual inspection and fit to a line. These slopes were converted from absorbance or fluorescence units as a function of time to product formation as a function of time using standard curves measured with the reaction products (p-nitrophenol and 6,8-difluoro-7-hydroxy-4-methylcoumarin). […]
SHP2 activation assays using phosphopeptides
Full-length SHP2 constructs were diluted in assay buffer (60 mM HEPES pH 7.2, 75 mM KCl, 75 mM NaCl,1 mM EDTA, 0.05% Tween-20, with 0.5 mM TCEP freshly added) to a 2X concentration of 0.1 nM. Peptides were serially diluted in assay buffer, with the last point of the concentration series fully without peptide. 15 μL of peptide and 15 μL of 800 μM DiFMUP was added to a black 96-well half area plate. Right before starting the plate reader assay, 30 μL SHP2 was added to each well a Supplementary Information - page 4 of 18 […]
final concentration of 0.05nM. Kinetic measurements (Ex 358/Em […]) were taken on a BioTek Neo2 plate reader every 25 seconds for 6 minutes.
Cloning of the PD-1 ITIM scanning mutagenesis library […]
described previously for other peptide display libraries in the eCPX system (2, 4). A series of oligonucleotides spanning the peptide-coding sequence was synthesized with a different NNS codon in place of each wild-type codon (11 oligonucleotides in total). These degenerate primers were pooled then used to amplify a library of linear DNA encoding mutant ITIM fusions to the eCPX scaffold protein.
This library was then cloned into the pBAD33 vector used for surface display.
SH2 specificity profiling using bacterial peptide display
Preparation of bacterial cells
Electrocompetent MC1061 cells were transformed with ~100 ng of the respective library. After 1 hour recovery in 1 mL LB, cells were further diluted into 250 mL LB + 0.1% chloramphenicol. 1.8 mL of overnight culture was used to inoculate 100 mL LB + 0.1% chloramphenicol, and grown until OD600 reached 0.5. 20 mL of cell suspension was induced at 25 °C using a final concentration of 0.4% arabinose until the OD600 ~ 1 (after approximately 4 hours). The cells were spun down at 4000 rpm for 15 minutes, and the pellet was resuspended in PBS so that the OD600 ~1.5. The cells were stored in the fridge and used within a week.
For each sample, 75 μL of Dynabeads™ FlowComp™ Flexi Kit were washed twice in 1 mL SH2 buffer (50 mM HEPES pH 7.5, 150 mM NaCl, 1 mM TCEP, and 0.2% BSA) on a magnetic rack.
The beads were then resuspended in 75 μL of SH2 buffer. SH2 domains were thawed quickly and 20 μM of protein was added to the beads. SH2 buffer was added up to 150 μL, and the suspension was incubated for 1 hour at 4 °C while rotating. After 1 hour, the suspension was placed on a magnetic rack and washed twice with 1 mL SH2 buffer.
Preparing the phosphorylated cells
150 μL of prepared cells per sample were spun down for 4000 rpm for 5 minutes at 4 °C.
Kinase screen buffer was prepared (50 mM Tris, 10 mM magnesium chloride, 150 mM sodium chloride; add 2 mM sodium orthovanadate and 1 mM TCEP fresh) and the cells of each sample were resuspended in 100 μL kinase screen buffer. Kinases c-Src, c-Abl, AncSZ, Eph1B were added to a final concentration of 2.5 µM each, creatine phosphate was added to a final concentration of 5 mM, and phosphokinase was added to a final concentration of 50 µg/mL. The suspension was incubated at 37 °C for 5 minutes before ATP was added to a final concentration of 1 mM. This mixture was incubated at 37 °C for 3 hours. After 3 hours, EDTA was added to a final concentration of 25 mM to quench the reaction. The input library control sample was not phosphorylated. These cells were spun down at 4000 rpm for 15 minutes at 4 °C. The cells were then resuspended in 100 µL of SH2 buffer […]

In order of rising EC50:
1. CC[C@H](C)[C@H](NC(=O)[C@H](Cc1ccc(OP(=O)(O)O)cc1)NC(=O)[C@H](CC(N)=O)NC(=O)[C@H](CC(C)C)NC(=O)CNC(=O)[C@H](CC(N)=O)NC(=O)[C@H](CCC(=O)O)NC(=O)[C@H](CC(C)C)NC(C)=O)C(=O)N[C@@H](CC(=O)O)C(=O)N[C@@H](CC(C)C)C(=O)N[C@@H](CC(=O)O)C(=O)N[C@@H](CC(C)C)C(=O)N[C@H](C(N)=O)C(C)C  1.43 µM
2. CSCC[C@H](NC(=O)[C@H](CC(C)C)NC(=O)[C@H](CCC(N)=O)NC(=O)[C@H](C)NC(=O)[C@H](Cc1ccc(OP(=O)(O)O)cc1)NC(=O)[C@H](CC(N)=O)NC(=O)[C@H](CC(C)C)NC(=O)[C@H](C)NC(=O)[C@H](C)NC(=O)[C@H](CCCCN)NC(=O)[C@H](CCCCN)NC(C)=O)C(=O)N[C@@H](Cc1ccccc1)C(=O)N1CCC[C@H]1C(N)=O  4.2 µM
3. CC(=O)N[C@@H](CO)C(=O)N[C@H](C(=O)NCC(=O)N[C@@H](CO)C(=O)N[C@H](C(=O)N[C@@H](CC(=O)O)C(=O)N[C@@H](Cc1ccc(OP(=O)(O)O)cc1)C(=O)N[C@@H](CC(C)C)C(=O)N[C@@H](C)C(=O)N[C@@H](CC(C)C)C(=O)N[C@@H](CC(=O)O)C(=O)N[C@@H](Cc1ccccc1)C(=O)N[C@@H](CCC(N)=O)C(N)=O)C(C)C)[C@@H](C)O  5.98 µM
4. CC[C@H](C)[C@H](NC(=O)[C@@H](NC(=O)[C@H](C)NC(=O)[C@H](Cc1ccc(OP(=O)(O)O)cc1)NC(=O)[C@H](CCC(=O)O)NC(=O)[C@@H](NC(=O)[C@H](CCC(N)=O)NC(=O)[C@H](CCC(=O)O)NC(=O)[C@@H]1CCCN1C(=O)[C@@H](NC(C)=O)C(C)C)[C@@H](C)O)[C@@H](C)O)C(=O)N[C@H](C(=O)N[C@@H](Cc1ccccc1)C(=O)N1CCC[C@H]1C(N)=O)C(C)C  6.26 µM
5. CC(=O)N1CCC[C@H]1C(=O)N[C@H](C(=O)N[C@@H](Cc1ccccc1)C(=O)N[C@@H](CO)C(=O)N[C@H](C(=O)N[C@@H](CC(=O)O)C(=O)N[C@@H](Cc1ccc(OP(=O)(O)O)cc1)C(=O)NCC(=O)N[C@@H](CCC(=O)O)C(=O)N[C@@H](CC(C)C)C(=O)N[C@@H](CC(=O)O)C(=O)N[C@@H](Cc1ccccc1)C(=O)N[C@@H](CCC(N)=O)C(N)=O)C(C)C)C(C)C  6.55 µM
6. CC[C@H](C)[C@H](NC(=O)[C@@H](NC(=O)[C@H](C)NC(=O)[C@H](Cc1ccc(OP(=O)(O)O)cc1)NC(=O)[C@@H](NC(=O)[C@@H]1CCCN1C(=O)[C@H](CCC(=O)O)NC(=O)[C@@H]1CCCN1C(=O)[C@H](CO)NC(=O)[C@@H](NC(C)=O)C(C)C)[C@@H](C)CC)[C@@H](C)O)C(=O)N[C@@H](CC(=O)O)C(=O)N[C@@H](CC(=O)O)C(=O)N[C@@H](CC(C)C)C(N)=O  27.3 µM
7. CC[C@H](C)[C@H](NC(=O)[C@H](CC(N)=O)NC(=O)[C@@H](NC(=O)[C@H](Cc1ccc(OP(=O)(O)O)cc1)NC(=O)[C@H](CCC(=O)O)NC(=O)CNC(=O)[C@@H]1CCCN1C(=O)[C@H](CO)NC(=O)[C@H](CCCCN)NC(=O)[C@@H]1CCCN1C(C)=O)C(C)C)C(=O)N[C@@H](CCC(=O)O)C(=O)N[C@@H](Cc1ccccc1)C(=O)NCC(N)=O  29.6 µM
8. CC[C@H](C)[C@H](NC(=O)[C@H](CC(=O)O)NC(=O)[C@H](C)NC(=O)[C@H](Cc1ccc(OP(=O)(O)O)cc1)NC(=O)[C@H](CCCCN)NC(=O)[C@@H](NC(=O)[C@H](CC(=O)O)NC(=O)CNC(=O)[C@H](CCCCN)NC(=O)[C@H](CCSC)NC(C)=O)C(C)C)C(=O)N[C@@H](CCC(=O)O)C(=O)N[C@@H](CO)C(=O)N[C@@H](CO)C(N)=O  120 µM
9. CC(=O)N[C@@H](C)C(=O)N[C@@H](CCCCN)C(=O)N[C@@H](CO)C(=O)NCC(=O)N[C@@H](C)C(=O)N[C@H](C(=O)N[C@@H](Cc1ccc(OP(=O)(O)O)cc1)C(=O)N[C@@H](CO)C(=O)N[C@@H](CCC(=O)O)C(=O)N[C@@H](CC(C)C)C(=O)N[C@@H](CC(N)=O)C(=O)N[C@@H](Cc1ccccc1)C(=O)NCC(N)=O)C(C)C  166 µM
